Results reported in the NIST ThermoML archive (doi:10.1016/j.jct.2006.09.012).
“And” between values parts separate entries of the source, which are not always exact repeats. Equal values may be shown once. Numbers after ± are expanded uncertainties.

Details: Gas, Buoyancy - hydrostatic balance with magnetic suspension - two sinkers

With `[He]` [helium] the mass density (223.15 K, 1881.4 kPa) was 4.0102 ± 0.0033 kg/m3 and 4.0101 ± 0.0033 kg/m3, the mass density (223.15 K, 1881.5 kPa) was 4.0102 ± 0.0033 kg/m3 and the mass density (223.15 K, 3970 kPa) was 8.3499 ± 0.0037 kg/m3. For the same compound, the mass density (223.15 K, 3970.1 kPa) was 8.3501 ± 0.0037 kg/m3 and 8.3499 ± 0.0037 kg/m3 and 8.35 ± 0.0037 kg/m3, the mass density (223.15 K, 3970.2 kPa) was 8.3499 ± 0.0037 kg/m3 and the mass density (223.15 K, 8133.1 kPa) was 16.67 ± 0.011 kg/m3 and 16.6699 ± 0.011 kg/m3 and 16.6701 ± 0.011 kg/m3. For the same compound, the mass density (223.15 K, 8133.2 kPa) was 16.6699 ± 0.011 kg/m3 and 16.6701 ± 0.011 kg/m3, the mass density (223.15 K, 11880 kPa) was 23.8087 ± 0.013 kg/m3 [middle of 5 runs] and the mass density (223.15 K, 15827 kPa) was 30.9985 ± 0.016 kg/m3. For the same compound, the mass density (223.15 K, 15828 kPa) was 30.9993 ± 0.016 kg/m3 [middle of 4 runs], the mass density (223.15 K, 19642 kPa) was 37.6507 ± 0.021 kg/m3 [middle of 4 runs] and the mass density (223.15 K, 26024 kPa) was 48.1863 ± 0.03 kg/m3 and 48.1868 ± 0.03 kg/m3. For the same compound, the mass density (223.15 K, 26025 kPa) was 48.1881 ± 0.03 kg/m3 and 48.1886 ± 0.03 kg/m3 and 48.1887 ± 0.03 kg/m3, the mass density (223.15 K, 32014 kPa) was 57.4666 ± 0.042 kg/m3 and the mass density (223.15 K, 32015 kPa) was 57.4668 ± 0.042 kg/m3 and 57.4679 ± 0.042 kg/m3. It also gave a mass density (223.15 K, 32016 kPa) of 57.4684 ± 0.042 kg/m3, a mass density (223.15 K, 32017 kPa) of 57.4698 ± 0.042 kg/m3 and a mass density (223.15 K, 38281 kPa) of 66.6119 ± 0.055 kg/m3. The mass density (223.15 K, 38282 kPa) was 66.6131 ± 0.055 kg/m3 and 66.6126 ± 0.055 kg/m3, the mass density (223.15 K, 38283 kPa) was 66.614 ± 0.055 kg/m3 and the mass density (223.15 K, 38284 kPa) was 66.616 ± 0.055 kg/m3. The mass density (253.15 K, 1929.2 kPa) was 3.629 ± 0.0031 kg/m3 and 3.6292 ± 0.0031 kg/m3, the mass density (253.15 K, 1929.3 kPa) was 3.629 ± 0.0031 kg/m3 and 3.6294 ± 0.0031 kg/m3 and 3.6292 ± 0.0031 kg/m3 and the mass density (253.15 K, 3784.6 kPa) was 7.046 ± 0.0035 kg/m3 and 7.0462 ± 0.0035 kg/m3 and 7.0461 ± 0.0035 kg/m3. The mass density (253.15 K, 7472.2 kPa) was 13.634 ± 0.0094 kg/m3, the mass density (253.15 K, 7472.3 kPa) was 13.634 ± 0.0094 kg/m3 and the mass density (253.15 K, 11895 kPa) was 21.202 ± 0.011 kg/m3 and 21.2018 ± 0.011 kg/m3. For the same compound, the mass density (253.15 K, 11896 kPa) was 21.2023 ± 0.011 kg/m3 and 21.2022 ± 0.011 kg/m3 and 21.2019 ± 0.011 kg/m3, the mass density (253.15 K, 15957 kPa) was 27.8548 ± 0.014 kg/m3 and the mass density (253.15 K, 15958 kPa) was 27.8555 ± 0.014 kg/m3 [middle of 4 runs]. For the same compound, the mass density (253.15 K, 19865 kPa) was 34.0064 ± 0.018 kg/m3 and 34.007 ± 0.018 kg/m3, the mass density (253.15 K, 19866 kPa) was 34.0081 ± 0.018 kg/m3 and 34.0112 ± 0.018 kg/m3 and the mass density (253.15 K, 25976 kPa) was 43.1785 ± 0.026 kg/m3. For the same compound, the mass density (253.15 K, 25977 kPa) was 43.179 ± 0.026 kg/m3 and 43.1796 ± 0.026 kg/m3, the mass density (253.15 K, 25978 kPa) was 43.181 ± 0.026 kg/m3 and 43.1801 ± 0.026 kg/m3 and the mass density (253.15 K, 31938 kPa) was 51.6436 ± 0.035 kg/m3 and 51.6443 ± 0.035 kg/m3. For the same compound, the mass density (253.15 K, 31940 kPa) was 51.647 ± 0.035 kg/m3 and 51.6462 ± 0.035 kg/m3 and 51.6454 ± 0.035 kg/m3, the mass density (253.15 K, 37813 kPa) was 59.5651 ± 0.046 kg/m3 and the mass density (253.15 K, 37814 kPa) was 59.5664 ± 0.046 kg/m3. For the same compound, the mass density (253.15 K, 37815 kPa) was 59.5673 ± 0.046 kg/m3, the mass density (253.15 K, 37816 kPa) was 59.5686 ± 0.046 kg/m3 and the mass density (253.15 K, 37817 kPa) was 59.5703 ± 0.046 kg/m3. The mass density (273.16 K, 935.8 kPa) was 1.6415 ± 0.0026 kg/m3, the mass density (273.16 K, 935.9 kPa) was 1.6416 ± 0.0026 kg/m3 and 1.6415 ± 0.0026 kg/m3 and the mass density (273.16 K, 1881.8 kPa) was 3.2839 ± 0.003 kg/m3. For the same compound, the mass density (273.16 K, 1927.3 kPa) was 3.363 ± 0.003 kg/m3 and 3.3629 ± 0.003 kg/m3, the mass density (273.16 K, 1927.4 kPa) was 3.3629 ± 0.003 kg/m3 and 3.363 ± 0.003 kg/m3 and the mass density (273.16 K, 1956.4 kPa) was 3.4135 ± 0.003 kg/m3. The mass density (273.16 K, 1956.5 kPa) was 3.4135 ± 0.003 kg/m3 and 3.4134 ± 0.003 kg/m3, the mass density (273.16 K, 3626.6 kPa) was 6.273 ± 0.0034 kg/m3 and 6.2731 ± 0.0034 kg/m3 and the mass density (273.16 K, 3626.7 kPa) was 6.2732 ± 0.0034 kg/m3. The mass density (273.16 K, 3626.8 kPa) was 6.2735 ± 0.0034 kg/m3, the mass density (273.16 K, 3926.1 kPa) was 6.7802 ± 0.0033 kg/m3 and the mass density (273.16 K, 3926.2 kPa) was 6.7804 ± 0.0033 kg/m3 and 6.7802 ± 0.0033 kg/m3 and 6.7803 ± 0.0033 kg/m3. It also gave a mass density (273.16 K, 3952.8 kPa) of 6.8257 ± 0.0034 kg/m3, a mass density (273.16 K, 3952.9 kPa) of 6.8257 ± 0.0034 kg/m3 and a mass density (273.16 K, 3975.1 kPa) of 6.8634 ± 0.0033 kg/m3. For the same compound, the mass density (273.16 K, 3975.2 kPa) was 6.8633 ± 0.0033 kg/m3 and 6.8635 ± 0.0033 kg/m3, the mass density (273.16 K, 7764.9 kPa) was 13.1534 ± 0.0081 kg/m3 and the mass density (273.16 K, 7765.3 kPa) was 13.1538 ± 0.0081 kg/m3. For the same compound, the mass density (273.16 K, 7765.7 kPa) was 13.1545 ± 0.0081 kg/m3, the mass density (273.16 K, 7766.1 kPa) was 13.1555 ± 0.0081 kg/m3 and the mass density (273.16 K, 7766.6 kPa) was 13.1563 ± 0.0081 kg/m3. For the same compound, the mass density (273.16 K, 7916 kPa) was 13.399 ± 0.0084 kg/m3, the mass density (273.16 K, 7916.1 kPa) was 13.3992 ± 0.0084 kg/m3 and 13.399 ± 0.0084 kg/m3 and 13.3991 ± 0.0084 kg/m3 and the mass density (273.16 K, 7973.3 kPa) was 13.4919 ± 0.0083 kg/m3. For the same compound, the mass density (273.16 K, 7973.4 kPa) was 13.4923 ± 0.0083 kg/m3 and 13.4922 ± 0.0083 kg/m3 and 13.4921 ± 0.0083 kg/m3, the mass density (273.16 K, 8006.1 kPa) was 13.5452 ± 0.0083 kg/m3 and the mass density (273.16 K, 8006.2 kPa) was 13.5452 ± 0.0083 kg/m3. For the same compound, the mass density (273.16 K, 11783 kPa) was 19.5712 ± 0.012 kg/m3 [middle of 5 runs], the mass density (273.16 K, 11830 kPa) was 19.6435 ± 0.017 kg/m3 [middle of 5 runs] and the mass density (273.16 K, 11855 kPa) was 19.6832 ± 0.0097 kg/m3 [middle of 5 runs]. For the same compound, the mass density (273.16 K, 12056 kPa) was 19.9988 ± 0.0092 kg/m3 [middle of 5 runs], the mass density (273.16 K, 15586 kPa) was 25.4233 ± 0.013 kg/m3 and 25.4234 ± 0.013 kg/m3 and the mass density (273.16 K, 15587 kPa) was 25.4235 ± 0.013 kg/m3 and 25.4232 ± 0.013 kg/m3. The mass density (273.16 K, 15980 kPa) was 26.017 ± 0.011 kg/m3 [middle of 5 runs], the mass density (273.16 K, 16077 kPa) was 26.1628 ± 0.011 kg/m3 and 26.1631 ± 0.011 kg/m3 and the mass density (273.16 K, 16078 kPa) was 26.164 ± 0.011 kg/m3 and 26.1636 ± 0.011 kg/m3 and 26.1633 ± 0.011 kg/m3. For the same compound, the mass density (273.16 K, 16090 kPa) was 26.1822 ± 0.011 kg/m3 [middle of 5 runs], the mass density (273.16 K, 19645 kPa) was 31.445 ± 0.018 kg/m3 [middle of 4 runs] and the mass density (273.16 K, 19708 kPa) was 31.5381 ± 0.018 kg/m3 and 31.5379 ± 0.018 kg/m3. The mass density (273.16 K, 19709 kPa) was 31.5382 ± 0.018 kg/m3 and 31.5385 ± 0.018 kg/m3 and 31.5386 ± 0.018 kg/m3, the mass density (273.16 K, 19869 kPa) was 31.7712 ± 0.016 kg/m3 and 31.7709 ± 0.016 kg/m3 and the mass density (273.16 K, 19870 kPa) was 31.7727 ± 0.016 kg/m3 and 31.7718 ± 0.016 kg/m3 and 31.7722 ± 0.016 kg/m3. The mass density (273.16 K, 20242 kPa) was 32.3124 ± 0.016 kg/m3 [middle of 4 runs], the mass density (273.16 K, 20243 kPa) was 32.314 ± 0.016 kg/m3 and the mass density (273.16 K, 25434 kPa) was 39.6666 ± 0.023 kg/m3 and 39.6662 ± 0.023 kg/m3 and 39.6672 ± 0.023 kg/m3. The mass density (273.16 K, 25435 kPa) was 39.6682 ± 0.023 kg/m3 and 39.6678 ± 0.023 kg/m3, the mass density (273.16 K, 25464 kPa) was 39.7083 ± 0.023 kg/m3 and the mass density (273.16 K, 25465 kPa) was 39.7092 ± 0.023 kg/m3. The mass density (273.16 K, 25466 kPa) was 39.7107 ± 0.023 kg/m3 and 39.7113 ± 0.023 kg/m3 and 39.7099 ± 0.023 kg/m3, the mass density (273.16 K, 25915 kPa) was 40.3302 ± 0.022 kg/m3 and 40.3307 ± 0.022 kg/m3 and 40.3313 ± 0.022 kg/m3 and the mass density (273.16 K, 25916 kPa) was 40.3324 ± 0.022 kg/m3 and 40.3317 ± 0.022 kg/m3. The mass density (273.16 K, 25964 kPa) was 40.3998 ± 0.022 kg/m3, the mass density (273.16 K, 25965 kPa) was 40.4011 ± 0.022 kg/m3 and 40.4013 ± 0.022 kg/m3 and the mass density (273.16 K, 25966 kPa) was 40.402 ± 0.022 kg/m3. For the same compound, the mass density (273.16 K, 31576 kPa) was 47.9567 ± 0.033 kg/m3.
